Blank lines part the entries; values can stand above or below the compound they belong to.
Legend:
Olfr16 = biological target: T1, Olfr16 (Mus musculus, UniProt Q62007); test: LYRAL® dose-response with a steady concentration of test compound (EC50-fold shift); assay type: cell-based; details: Olfr16 (mouse ortholog); LYRAL® + steady concentration of compound vs LYRAL® alone
T1 construct: expressed in transfected cells
T1 sequence (Q62007 1-309): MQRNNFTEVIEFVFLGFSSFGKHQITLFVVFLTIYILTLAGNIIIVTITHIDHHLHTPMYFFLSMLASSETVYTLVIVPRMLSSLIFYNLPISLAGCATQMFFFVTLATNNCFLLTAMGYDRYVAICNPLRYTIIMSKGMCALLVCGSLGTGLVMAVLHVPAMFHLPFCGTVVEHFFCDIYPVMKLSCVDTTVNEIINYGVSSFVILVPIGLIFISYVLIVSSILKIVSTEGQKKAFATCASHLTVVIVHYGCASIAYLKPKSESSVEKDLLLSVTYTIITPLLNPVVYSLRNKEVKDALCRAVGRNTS
Description: (§1) LYRAL® enhancement specificity was tested on compounds that were structurally similar to enhancers identified. Dose response curves to LYRAL® were obtained in the presence of a steady concentration of a test compound and compared to a dose-response curve of LYRAL® alone. The resulting enhancement was quantified by means of EC50-fold shift (potency increase) and the efficacy span ratio (efficacy increase).
The EC50-fold shift was obtained by dividing the EC50 of LYRAL®+compound by the reference EC50 of LYRAL® alone. The span ratio was obtained by dividing the span of LYRAL®+compound by the reference span of LYRAL® alone.

OR10J5 [1] = biological target: T2, OR10J5 (Homo sapiens, UniProt Q8NHC4); test: as above; assay type: cell-based; details: LYRAL® + steady concentration of compound vs LYRAL® alone
T2 construct: Flag; Rho (rhodopsin-derived tag); expressed in transfected cells
T2 sequence (Q8NHC4 1-309): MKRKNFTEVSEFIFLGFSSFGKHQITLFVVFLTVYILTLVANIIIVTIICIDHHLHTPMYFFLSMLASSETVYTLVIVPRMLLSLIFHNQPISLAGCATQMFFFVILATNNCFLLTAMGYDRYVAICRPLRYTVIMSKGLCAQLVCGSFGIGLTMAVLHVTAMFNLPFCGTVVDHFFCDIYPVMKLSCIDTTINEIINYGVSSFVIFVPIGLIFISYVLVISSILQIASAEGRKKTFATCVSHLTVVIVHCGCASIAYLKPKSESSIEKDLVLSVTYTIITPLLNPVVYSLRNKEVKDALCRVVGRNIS
Description: (§2) A dose response curve showing the activation of OR10J5 in response to the floral muguet compound 3-(4-hydroxy-4-methylpentyl)cyclohex-3-ene-1-carbaldehyde, 4-(4-hydroxy-4-methylpentyl)cyclohex-3-ene-1-carbaldehyde or a mixture thereof (sold under the tradename LYRAL®, hereinafter referred to as “LYRAL®”) is shown in FIG. 1. Using a cell-based assay, OR10J5 activity was tested in a HEK293T cell line wherein the endogenous chaperone RTP1 gene has been activated and the odorant receptor chaperone was expressed according to the methods disclosed in International Patent Application Publication No. WO2016/201153 A1. The Flag-Rho-tagged receptor was co-transfected with the olfactory canonical G-protein Golf and was exposed to a binary mixture of a single concentration of LYRAL® and a test compound.
as §1
The EC50-fold shift was obtained by dividing the EC50 of LYRAL®+compound by the reference EC50 of LYRAL® alone. […]

[2] = biological target: T3, OR10J5 olfactory receptor (Homo sapiens, UniProt Q8NHC4); test: Dose-response confirmation of enhancer candidates, alone and with EC20 LYRAL®; assay type: cell-based; details: response to LYRAL® raised beyond EC20 without measurable intrinsic activity
T3 construct: Flag; Rho (rhodopsin-derived tag); expressed in transfected cells
T3 sequence (Q8NHC4 1-309): T2 sequence (Q8NHC4 1-309)
Description: as §2
A library of volatile compounds was used to create binary mixtures of each compound with LYRAL® at approximately EC20, a concentration eliciting only approximately 20% of full activity level of OR10J5 by itself. An activation cell-based assay was used for the initial enhancer candidate identification as disclosed in WO2019122236. Single binary mixture-induced receptor activity was detected by measuring the cAMP increase in the cytosol using an HTRF (Homogenous Time-Resolved Fluorescence unit) based kit (CisBio, cAMP dynamic 2 kit, 62AM4PEJ).
The 37 candidates remaining in Table 2 were identified and were tested in two parallel dose-response experiments to confirm the true enhancement properties of the potential candidates. First, a dose-response of each individual candidate was performed to determine if it was an agonist by itself. Second, the same candidate dose-response curve in the presence of EC20 LYRAL® concentration (generating 20% activity on OR10J5) was assessed for activity level increase.

OR10J5 [3] = biological target: T2, OR10J5; test: LYRAL® dose-response with serial enhancer concentrations, allosteric EC50 shift model; assay type: cell-based
Description: Functional dose-response experiments were performed to reveal the allosteric nature of the interaction between 3-(1,3-benzodioxol-5-yl)-2-methylpropanal, 3-(4-methylcyclohex-3-en-1-yl)butanal, 2,6-dimethylhept-5-enal and heptanal and OR10J5. The level of enhancement of OR10J5's activation was evaluated at distinct concentrations of each enhancer. Using the same cell-based assay described earlier, dose response curves of OR10J5 to LYRAL® in the presence of serial concentrations of the enhancers spanning from 0 to 600 μM were performed, see FIG. 5. The curves were obtained by applying the simplified Allosteric EC50 shift effect equation (available in Prism7) derived from the ternary complex interaction model. The enhancement levels recorded were not linearly dependent on the concentration of the enhancer, and the following key parameters values for α (the cooperativity factor) and KB (the equilibrium dissociation constant of the enhancer) were obtained from the model for each enhancer: 3-(1,3-benzodioxol-5-yl)-2-methylpropanal, α=6.3 and KB=10 μM; 3-(4-methylcyclohex-3-en-1-yl)butanal, α=7.5 and KB=15 μM; 2,6-dimethylhept-5-enal, α=4.1 and KB=16 μM; and heptanal; α=3.2 and KB=51 μM. α>1 is indicative of positive allosteric modulation.

OR10J5 [4] = biological target: T2, OR10J5; test: (+−)-2,5-dimethyl-2-indanmethanol dose-response with a steady concentration of test compound; assay type: cell-based; details: OR10J5
Description: OR10J5 activity enhancement was tested with an additional agonist and with one of the test compounds and conditions described in the Examples above. Dose response curves to (+−)-2,5-dimethyl-2-indanmethanol was obtained in the presence of a steady concentration of the test compound and compared to a dose-response curve of the agonist alone. The resulting enhancement was quantified by means of EC50-fold shift (potency increase) and the efficacy span ratio (efficacy increase) as described above.

[5] = Odor detection threshold (ODT) forced-choice triangle tests for LYRAL® with background odor; assay type: in vivo, human; details: 28 panelists; enhancer at 0.1% vs neutral compound at 7%; main effect of Material p=0.03, interaction p=0.052
Description: Sensitivity of human individuals to LYRAL® was evaluated by performing an odor detection threshold (ODT) test. The ODT test consisted of identifying the concentration for which 50%, preferably 66%, of the panelists are able to determine which of three containers contains the target compound LYRAL® in a series of forced-choice triangle tests. Two tests were performed to calculate the ODT in mixtures containing LYRAL® plus a perceivable background odor of chemically similar molecules a) the enhancer, 3-(4-methylcyclohex-3-en-1-yl)butanal and b) the non-enhancing volatile compound, 3-[(1R)-4-methyl-3-cyclohexen-1-yl]-1-butanol. These two molecules are chemically similar. The perceived intensity of the two background odors was monitored to be isointense to control that the responses recorded answer were intensity independent.
28 panelists were given a series of triangle tests with increasing concentrations of LYRAL® in the presence of 3-(4-methylcyclohex-3-en-1-yl)butanal at a concentration of 0.1%. Within each triangle test, the three samples contained 3-(4-methylcyclohex-3-en-1-yl)butanal at 0.1% and one sample also contained LYRAL®. 28 panelists were given a series of triangle tests with increasing concentration of Lyral® in the presence of 3-[(1R)-4-methyl-3-cyclohexen-1-yl]-1-butanol at a concentration of 7%. […]

Compound: CC(C=O)Cc1ccc2c(c1)OCO2 (stereo not drawn) [3-(1,3-benzodioxol-5-yl)-2-methylpropanal]
EC50 fold shift of LYRAL® (potency increase) (Olfr16): 5 fold | EC50 fold shift of LYRAL® (potency increase) (OR10J5 [1]): 9.2 fold | enhancement of OR10J5 LYRAL® activation (true enhancer) [2]: potent enhancement | Kb (OR10J5 [3]): 10 µM | α (cooperativity factor) (OR10J5 [3]; enhancer 0 to 600 μM, allosteric EC50 shift equation (Prism7), α>1 indicates positive allosteric modulation): 6.3 | EC50 fold shift of (+−)-2,5-dimethyl-2-indanmethanol (OR10J5 [4]; agonist + steady concentration of compound vs agonist alone): 8.6 fold | efficacy increase (span ratio) of (+−)-2,5-dimethyl-2-indanmethanol (OR10J5 [4]; within the dynamic range of the dose response): 1.7 fold

enhancement of OR10J5 LYRAL® activation (true enhancer) [2]: potent enhancement
Compound: CC1=CC[C@H](C(C)CC=O)CC1 (stereo partly drawn) [3-(4-methylcyclohex-3-en-1-yl)butanal]
proportion of correct LYRAL® detection responses with increasing LYRAL® concentration [5]: proportion of correct responses increased at a higher rate

Reference: US11951197B2, “Use of volatile compounds to modulate the perception of floral muguet” (FIRMENICH SA, priority 2018, dated 2024)
